Tests used:
[1] = target: T1, carbohydrate recognition domain of human galectin-3 (Galectin-3-CRD) (Homo sapiens, UniProt P17931); test: Galectin-3 activity microscale thermophoresis assay; assay type: binding; settings: label-free MST, 20 nM galectin-3-CRD; average of all assays (± standard deviation), each assay in triplicate
T1 construct: The carbohydrate recognition domain of human galectin-3 (Servesto Galectin-3-CRD) was diluted; purchased Servesto
Description: The carbohydrate recognition domain of human galectin-3 (Servesto Galectin-3-CRD) was diluted with PBS+0.1% F127 to 40 nM. Separately, a 40 uM stock of Compound 45 in DMSO was diluted down to 4 uM in PBS+0.1% F127 and serially diluted in sixteen steps using a dilution factor of 1 to 2 in 10% DMSO+PBS+0.1% F127. To each sample in the serial dilution of Compound 45, 10 ul of 40 nM Galectin-3-CRD was added, yielding final concentrations of 20 nM galectin-3-CRD and 5% DMSO+PBS+0.1% F127. NT.LabelFree Zero background Standard Treated Capillaries were filled with the prepared solutions then loaded into the Monolith NT Label-Free MST instrument. The reaction was measured with 100% excitation power of LED and medium (40%) MST power. Binding curves and Kd values were generated using MO affinity analysis. Each assay was run in triplicate. Some compounds were subjected to more than one assay run in triplicate.

galectin-3 = target: T2, galectin-3 (Homo sapiens, UniProt P17931); test: Galectin-3 activity ELISA assay: inhibition of galectin-3 binding to immobilized Galβ1-3GlcNAc polymer; settings: inhibition of galectin-3 binding to Galβ1-3GlcNAc polymer, average (± standard deviation) where assayed more than once
T2 construct: purchased IBL IBATGP0414
T2 sequence (P17931 whole entry): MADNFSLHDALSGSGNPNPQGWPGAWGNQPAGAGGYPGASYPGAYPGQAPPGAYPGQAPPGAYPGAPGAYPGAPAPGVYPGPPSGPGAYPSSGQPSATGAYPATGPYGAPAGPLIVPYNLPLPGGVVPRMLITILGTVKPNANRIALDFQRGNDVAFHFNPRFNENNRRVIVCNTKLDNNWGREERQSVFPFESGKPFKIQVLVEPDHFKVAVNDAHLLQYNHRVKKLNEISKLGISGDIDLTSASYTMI
Source text: An inhibition assay may be used to screen for antagonists of galectin-3. For example, an assay may be performed to characterize the capability of a compound described herein to inhibit interaction of galectin-3 with a Galβ1-3GlcNAc carbohydrate structure. The inhibition assay may be a competitive binding assay, which allows the determination of IC50 values. By way of example, a Galβ1-3GlcNAc polymer may be immobilized onto a matrix; a composition may be added to reduce nonspecific binding; the immobilized Galβ1-3GlcNAc polymer may be contacted with the candidate compound in the presence of galectin-3 group under conditions and for a time sufficient to permit galectin-3 to bind to the immobilized Galβ1-3GlcNAc polymer; the immobilized Galβ1-3GlcNAc polymer may be washed; and the amount of galectin-3 bound to the immobilized Galβ1-3GlcNAc polymer may be detected. Variations of such steps can be readily and routinely accomplished by a person of ordinary skill in the art.
Galectin-3 antagonists were evaluated for their ability to inhibit binding of galectin-3 to a Galβ1-3GlcNAc carbohydrate structure. The detailed protocol was as follows. A 1 μg/mL suspension of a Galβ1-3GlcNAcβ1-3Galβ1-4GlcNAcβ-PAA-biotin polymer (Glycotech, catalog number 01-096) was prepared. A 100 μL aliquot of the polymer was added to the wells of a 96-well streptavidin-coated plate (R&D Systems, catalog number CP004). A 100 μL aliquot of 1× Tris Buffered Saline (TBS, Sigma, catalog number T5912-10X) was added to control wells. The polymer was allowed to bind to the streptavidin-coated wells for 1.5 hours at room temperature. The contents of the wells were discarded, and 200 μL of 1×TBS containing 1% bovine serum albumin (BSA) was added to each well as a blocking reagent and the plate was kept at room temperature for 30 minutes. The wells were washed three times with 1×TBS containing 0.1% BSA. A serial dilution of test compounds was prepared in a separate V-bottom plate (Corning, catalog number 3897). A 75 μL aliquot of the highest concentration of the compound to be tested was added to the first well in a column of the V-bottom plate, then 15 μL were serially transferred into 60 μL 1×TBS through the remaining wells in the column to generate a 1 to 5 serial dilution. A 60 μL aliquot of 2 μg/mL galectin-3 (IBL, catalog number IBATGP0414) was added to each well in the V-bottom plate. A 100 μL aliquot of the galectin-3 test compound mixture was transferred from the V-bottom plate into the assay plate containing the Galβ1-3GlcNAc polymer. Four sets of control wells in the assay plate were prepared in duplicate containing 1) both Galβ1-3GlcNAc polymer and galectin-3, 2) neither the polymer nor galectin-3, 3) galectin-3 only, no polymer, or 4) polymer only, no galectin-3. The plate was gently rocked for 1.5 hours at room temperature. The wells were washed four times with TBS/0.1% BSA. A 100 μL aliquot of anti-galectin-3 antibody conjugated to horse radish peroxidase (R&D Systems, from DGAL30 kit) was added to each well, and the plate was kept at room temperature for 1 hour. The wells were washed four times with TBS/0.1% BSA. A 100 μL aliquot of TMB substrate solution was added to each well. The TMB substrate solution was prepared by making a 1:1 mixture of TMB Peroxidase Substrate (KPL, catalog number 5120-0048) and Peroxidase Substrate Solution B (KPL, catalog number 5120-0037). The plate was kept at room temperature for 10 to 20 minutes. The color development was stopped by adding 100 uL 10% phosphoric acid (RICCA Chemical Co., catalog number 5850-16). The absorbance at 450 nm (A450) was measured using a FlexStation 3 plate reader (Molecular Devices). Plots of A450 versus test compound concentration and IC50 determinations were made using GraphPad Prism 6. The number of assays run (n) for each compound is recorded in the following table.

T1 sequence (P17931 118-248 limits assumed): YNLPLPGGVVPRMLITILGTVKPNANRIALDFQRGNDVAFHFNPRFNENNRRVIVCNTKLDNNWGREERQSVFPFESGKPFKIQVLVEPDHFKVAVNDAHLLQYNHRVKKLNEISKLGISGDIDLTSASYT

Compound	Kd [1] [nM]	IC50 (galectin-3) [nM]
CC(C)OC(=O)[C@@H](OCc1ccc(Br)cc1)[C@@H]1OC(CO)[C@H](O)C(n2cc(-c3cc(F)c(F)c(F)c3)nn2)C1O (stereo partly shown) [Compound 27]	26	173
COCCCNC(=O)[C@@H](OCc1ccc(Br)cc1)[C@@H]1OC(CO)[C@H](O)C(n2cc(-c3cc(F)c(F)c(F)c3)nn2)C1OC (stereo partly shown) [Compound 20]	36	265
[2H]C([2H])([2H])OC1C(n2cc(-c3cc(F)c(F)c(F)c3)nn2)[C@@H](O)C(CO)O[C@H]1[C@H](OCc1ccc(Br)cc1)C(=O)NC1(C)CC1 (stereo partly shown) [Compound 50]	10	201
CC(C)NC(=O)[C@@H](OCc1ccc(Br)cc1)[C@@H]1OC(CO)[C@H](O)C(n2cc(-c3cc(F)c(F)c(F)c3)nn2)C1O (stereo partly shown) [Compound 44]	12	291
[2H]C([2H])([2H])OC1C(n2cc(-c3cc(F)c(F)c(F)c3)nn2)[C@@H](O)C(CO)O[C@H]1[C@H](OCc1ccc(Br)cc1)C(=O)NC(C)C (stereo partly shown) [Compound 45]	8.9	171
COCCCNC(=O)[C@@H](OCc1ccc(Br)cc1)[C@@H]1OC(CO)[C@H](O)C(n2cc(-c3cc(F)c(F)c(F)c3)nn2)C1O (stereo partly shown) [Compound 36]	14	204

The remaining lines, values ahead:

Kd [1] [nM]	IC50 (galectin-3) [nM]	Compound
20	724	COC1C(n2cc(-c3cc(F)c(F)c(F)c3)nn2)[C@@H](O)C(CO)O[C@H]1[C@H](OCc1ccc(Cl)cc1)C(=O)OC(C)C (stereo partly shown) [Compound 87, reference compound]
17	702	[2H]C([2H])([2H])OC1C(n2cc(-c3cc(F)c(F)c(F)c3)nn2)[C@@H](O)C(CO)O[C@H]1[C@H](OCc1ccc(Br)cc1)C(=O)NC1(C(F)(F)F)CC1 (stereo partly shown) [Compound 51]
570	2910	COC1C(n2cc(-c3cc(F)c(F)c(F)c3)nn2)[C@@H](O)C(CO)O[C@H]1[C@H](OCc1ccc(Cl)cc1)C(=O)N(C)C (stereo partly shown) [Compound 83, reference compound]
67	416	[2H]C([2H])([2H])OC1C(n2cc(-c3cc(F)c(F)c(F)c3)nn2)[C@@H](O)C(CO)O[C@H]1[C@H](OCc1ccc(Cl)cc1)C(=O)NC(C)C (stereo partly shown) [Compound 88, reference compound]
9	197	COC1C(n2cc(-c3cc(F)c(F)c(F)c3)nn2)[C@@H](O)C(CO)O[C@H]1[C@H](OCc1ccc(Br)cc1)C(=O)NC(CF)CF (stereo partly shown) [Compound 72]

Source: patent US20240270724A1, “GALECTIN-3 INHIBITING C-GLYCOSIDES” (GLYCOMIMETICS, INC., priority 2021, published 2024)
